Earlier results, collected in patent US6821974B2, “Stable pharmaceutical compositions” (Barbeau Pharma, Inc, priority 2002, dated 2004).
Where two headings read alike, the source gives them in different places.

Key:
[1] = 20 mg/ml sterile injection solutions

For `NNc1nncc2ccccc12` [Hydralazine, 1-hydrazinophthalazine], the “storage time after which submicron particles appear” value [1] is given as 6-12 months, the onset of action (given intravenously) is given as 10 to 20 min and the duration of action (in vivo) is given as 3 to 4 h. For the same compound, the maximum hypotensive effect (in vivo) was 10 to 80 min and the onset of action (in vivo) was 10 to 30 min.
